# Results from patent US20180071317A1, “USE OF AGENTS THAT ALTER THE PERITUMORAL ENVIRONMENT FOR THE TREATMENT OF CANCER” (SERVICIO ANDALUZ DE SALUD, priority 2011, published 2018).
# Experiments:
# [1] = tested on: fibroblasts (PHF) co-cultured with tumor cells of lung carcinoma (A-427); assay: Marker expression (IHC) in PHF co-cultured with A-427 tumor cells; format: cell-based, human; settings: co-culture with A-427 lung carcinoma; SP 1 μM + antagonist 1 μM; 48 h;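 note: cultures grown in human blood plasma from a healthy donor, value is the percentage of fibroblasts positive for each marker, six replicates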
# Experimental: (§1) All cultures were maintained 48 hours, following which the same cells were included in paraffin blocks for subsequent analysis of the expression of different markers by immunohistochemistry (see Example 1). […] All experiments were carried out sixfold. Analyzed markers in fibroblast cells (stromal cells) were: TGF-α, TGF-β1, TGF-β2, TGF-β3, SPARC, MMP-3, MMP-7, MMP-9, MMP-11, MMP-13 and MMP-14.
# [2] = tested on: fibroblasts (PHF) co-cultured with human fibrosarcoma tumor cells (HT-1080); assay: Marker expression (IHC) in PHF co-cultured with HT-1080 tumor cells; format: cell-based; settings: co-culture with HT-1080; SP 1 μM + antagonist 1 μM; 48 h;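 note: cultures grown in fresh human plasma from a healthy donor, six replicates, value is percent of fibroblasts positive for the marker, compared with fibroblasts cultured without tumor cells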
# Experimental: as §1
# [3] = tested on: fibroblasts (PHF) co-cultured with human melanoma tumor cells (MEL-HO1); assay: Marker expression (IHC) in PHF co-cultured with MEL-HO1 tumor cells; format: cell-based; settings: PHF co-cultured with MEL-HO1 + SP + NK1 antagonist;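 note: values are the percentage of fibroblasts positive for each marker, with cultures grown in fresh healthy-donor blood plasma and each experiment run six times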
# Experimental: as §1
# [4] = tested on: fibroblasts (PHF) cells co-cultured with human T lymphoma tumor (DERL-7); assay: Marker expression (IHC) in PHF co-cultured with DERL-7 tumor cells; format: cell-based; settings: PHF co-cultured with DERL-7 + SP + NK1 antagonist
# [5] = tested on: fibroblasts of tumors produced by lung carcinoma non small cell human (HCC-44) cells; assay: Marker expression (IHC) in fibroblasts of tumor or peritumoral area, mouse model, HCC-44; format: in vivo; settings: HCC-44 tumors in mice, 30 mg/kg/day oral, 7 days
# Experimental: The expression on fibroblast cells obtained in the animal model was analyzed by immunohistochemistry, of the above markers: TGF-α, TGF-β1, TGF-β2, TGF-β3, MMP-7, MMP-1 1, MMP-14MP-14. […] This process was realized in mice treated with non-peptide antagonists of NK1 receptor and in untreated animals (control).
# [6] = tested on: fibroblasts of tumors produced by tumor cell line of human melanoma (MEL HO); assay: Marker expression (IHC) in fibroblasts of tumor or peritumoral area, mouse model, MEL HO; format: in vivo; settings: MEL HO tumors in mice, 30 mg/kg/day oral, 7 days
# Experimental: In vitro tests conducted in Example 5 are now carried out in an experimental model in mice in vivo. […] Subsequently, the expression in fibroblasts tumoral and peritumoral area of molecular markers associated with progression and maintenance of tumors: TGF-α, TGF-β1, TGF-β2, TGF-β3, MMP-7, MMP-11, MMP-14 were analyzed by immunohistochemistry.
# Were injected with 2×10^7 cells tumors (corresponding, in each case to each of the tumor types as specified in Table 9) in 200 of PBS subcutaneously μl. […] Mice were randomized into two groups when the tumors reached a volume of 75 mm^3 One group was treated with non-peptide receptor antagonists NK1 and the other with placebo 200μ1. […] Tumors and samples of non-neoplastic stromal areas remote from the tumor were halved, formalin fixed (4%) and then were included in paraffin blocks for analysis by immunohistochemistry.
# The expression on fibroblast cells obtained in the animal model was analyzed by immunohistochemistry, of the above markers: TGF-α, TGF-β1, TGF-β2, TGF-β3, MMP-7, MMP-1 1, MMP-14MP-14. Tables 32 to 35 depict the type of label used and the average percentage of fibroblasts present in non-tumor areas, tumor and peritumoral (±SD) which were expressing the marker shown in each of the tumor types developed from of the different cell lines used. This process was realized in mice treated with non-peptide antagonists of NK1 receptor and in untreated animals (control).
# [7] = tested on: co-cultures of tumor cells-endothelial cells (C-12210); assay: Inhibition/survival in co-cultures of primary human tumor cells and endothelial cells; format: cell-based; settings: survival in reference to control, SP 1 μM, Vestipitant 1 μM
# Experimental: To check that the interaction of primary tumor cells extracted directly from human with human vascular endothelial cells, promotes the survival of both cell types, co-cultures were performed microvascular endothelial cells from juvenile foreskins (PromoCell GmbH, Sickingenstraβe 63/65, D-69126 Heidelberg, Germany; reference C-12210) with tumor cells obtained directly from primary human tumors.
# A total of 6 wells containing tumor cells were used as control for survival. Another 6 wells containing tumor cells were cultured with addition of endothelial cells.
# Subsequently, cells were embedded in paraffin for analysis by immunohistochemistry. In order to identify the different cell types and quantity of them [They were labelled with primary antibodies specific for human endothelial cells (anti-CD31), carcinoma cells (Anti-Cytokeratins Spread Spectrum), glioma (Anti-glial fibrillary acidic protein), fibrosarcoma and malignant fibrous histiocytoma (Anti-Smooth Muscle Actin), Ewing sarcoma (Anti-CD99), Melanoma (Anti-HMB45), leukemias and lymphomas (Anti-Common Antigen Leucitario) and myeloma (anti CD 138). All antibodies are distributed by Dako and were used at the same concentration which is supplied (supplied pre-diluted—“ready to use”).
# [8] = Carcinoma of lung, (Small cell carcinoma in Table 36)
# [9] = Carcinoma of lung, Non Small Cell Carcinoma in Table 36
# [10] = Carcinoma of thyroid, (Follicular Carcinoma in Table 36)
# [11] = Carcinoma of thyroid, (Papillary Carcinoma in Table 36)
structure (smiles),measurement,setting,value
Cc1cc(F)ccc1[C@H]1CNCCN1C(=O)N(C)[C@H](C)c1cc(C(F)(F)F)cc(C(F)(F)F)c1 [Vestipitant],PHF cells expressing MMP-3,[1],0%
same,PHF cells expressing MMP-7,[1],0%
same,PHF cells expressing MMP-9,[1],0%
same,PHF cells expressing MMP-11,[1],0%
same,PHF cells expressing MMP-13,[1],0%
same,PHF cells expressing MMP-14,[1],0%
same,PHF cells expressing SPARC,[1],0%
same,PHF cells expressing TGF-α,[1],0%
same,PHF cells expressing TGF-β1,[1],0%
same,PHF cells expressing TGF-β2,[1],0%
same,PHF cells expressing TGF-β3,[1],0%
same,PHF cells expressing MMP-3,[2],0%
same,PHF cells expressing MMP-7,[2],0%
same,PHF cells expressing MMP-9,[2],0%
same,PHF cells expressing MMP-11,[2],0%
same,PHF cells expressing MMP-13,[2],0%
same,PHF cells expressing MMP-14,[2],0%
same,PHF cells expressing SPARC,[2],0%
same,PHF cells expressing TGF-α,[2],0%
same,PHF cells expressing TGF-β1,[2],0%
same,PHF cells expressing TGF-β2,[2],0%
same,PHF cells expressing TGF-β3,[2],0%
same,cells expressing MMP-3,[3],0%
same,cells expressing MMP-7,[3],0%
same,cells expressing MMP-9,[3],0%
same,cells expressing MMP-11,[3],0%
same,cells expressing MMP-13,[3],0%
same,cells expressing MMP-14,[3],0%
same,cells expressing SPARC,[3],0%
same,cells expressing TGF-α,[3],0%
same,cells expressing TGF-β1,[3],0%
same,cells expressing TGF-β2,[3],0%
same,cells expressing TGF-β3,[3],0%
same,cells expressing MMP-3,[4],0%
same,cells expressing MMP-7,[4],0%
same,cells expressing MMP-9,[4],0%
same,cells expressing MMP-11,[4],0%
same,cells expressing MMP-13,[4],0%
same,cells expressing MMP-14,[4],0%
same,cells expressing SPARC,[4],0%
same,cells expressing TGF-α,[4],0%
same,cells expressing TGF-β1,[4],0%
same,cells expressing TGF-β2,[4],0%
same,cells expressing TGF-β3,[4],0%
same,fibroblasts expressing MMP-7,[5],0%
same,fibroblasts expressing MMP-11,[5],0%
same,fibroblasts expressing MMP-14,[5],0%
same,fibroblasts expressing TGF-α,[5],0%
same,fibroblasts expressing TGF-β 1,[5],0%
same,fibroblasts expressing TGF-β 2,[5],0%
same,fibroblasts expressing TGF-β 3,[5],0%
same,fibroblasts expressing MMP-7,[6],0%
same,fibroblasts expressing MMP-11,[6],0%
same,fibroblasts expressing MMP-14,[6],0%
same,fibroblasts expressing TGF-α,[6],0%
same,fibroblasts expressing TGF-β 1,[6],0%
same,fibroblasts expressing TGF-β 2,[6],0%
same,fibroblasts expressing TGF-β 3,[6],0%
same,Endothelial cells co-cultured with tumor cells + SP + Vestipitant,[7]; Carcinoma of Colon,54 ± 3%
same,Tumor cells co-cultured with endothelial cells + SP + Vestipitant,[7]; Carcinoma of Colon,65 ± 6%
same,Endothelial cells co-cultured with tumor cells + SP + Vestipitant,[7]; Carcinoma of Pancreas,55 ± 3%
same,Tumor cells co-cultured with endothelial cells + SP + Vestipitant,[7]; Carcinoma of Pancreas,47 ± 5%
same,Endothelial cells co-cultured with tumor cells + SP + Vestipitant,[7]; Carcinoma of breast,55 ± 4%
same,Tumor cells co-cultured with endothelial cells + SP + Vestipitant,[7]; Carcinoma of breast,55 ± 5%
same,Endothelial cells co-cultured with tumor cells + SP + Vestipitant,[7]; Carcinoma of cervix,47 ± 4%
same,Tumor cells co-cultured with endothelial cells + SP + Vestipitant,[7]; Carcinoma of cervix,47 ± 4%
same,Endothelial cells co-cultured with tumor cells + SP + Vestipitant,[7]; Carcinoma of endometrial,56 ± 5%
same,Tumor cells co-cultured with endothelial cells + SP + Vestipitant,[7]; Carcinoma of endometrial,47 ± 6%
same,Endothelial cells co-cultured with tumor cells + SP + Vestipitant,[7]; [8],45 ± 6%
same,Tumor cells co-cultured with endothelial cells + SP + Vestipitant,[7]; [8],67 ± 5%
same,Endothelial cells co-cultured with tumor cells + SP + Vestipitant,[7]; [9],45 ± 3%
same,Tumor cells co-cultured with endothelial cells + SP + Vestipitant,[7]; [9],64 ± 6%
same,Endothelial cells co-cultured with tumor cells + SP + Vestipitant,[7]; Carcinoma of ovarian,44 ± 4%
same,Tumor cells co-cultured with endothelial cells + SP + Vestipitant,[7]; Carcinoma of ovarian,57 ± 6%
same,Endothelial cells co-cultured with tumor cells + SP + Vestipitant,[7]; Carcinoma of prostate,51 ± 6%
same,Tumor cells co-cultured with endothelial cells + SP + Vestipitant,[7]; Carcinoma of prostate,48 ± 6%
same,Endothelial cells co-cultured with tumor cells + SP + Vestipitant,[7]; Carcinoma of stomach,62 ± 3%
same,Tumor cells co-cultured with endothelial cells + SP + Vestipitant,[7]; Carcinoma of stomach,56 ± 4%
same,Endothelial cells co-cultured with tumor cells + SP + Vestipitant,[7]; [10],46 ± 4%
same,Tumor cells co-cultured with endothelial cells + SP + Vestipitant,[7]; [10],47 ± 5%
same,Endothelial cells co-cultured with tumor cells + SP + Vestipitant,[7]; [11],52 ± 5%
same,Tumor cells co-cultured with endothelial cells + SP + Vestipitant,[7]; [11],55 ± 6%
same,Endothelial cells co-cultured with tumor cells + SP + Vestipitant,[7]; Fibrosarcoma,46 ± 7%
same,Tumor cells co-cultured with endothelial cells + SP + Vestipitant,[7]; Fibrosarcoma,56 ± 7%
same,Endothelial cells co-cultured with tumor cells + SP + Vestipitant,[7]; Glioma,54 ± 3%
same,Tumor cells co-cultured with endothelial cells + SP + Vestipitant,[7]; Glioma,47 ± 5%
same,Endothelial cells co-cultured with tumor cells + SP + Vestipitant,[7]; Hodgkin's Lymphoma,47 ± 5%
same,Tumor cells co-cultured with endothelial cells + SP + Vestipitant,[7]; Hodgkin's Lymphoma,76 ± 5%
same,Endothelial cells co-cultured with tumor cells + SP + Vestipitant,[7]; Leukemia B,47 ± 4%
same,Tumor cells co-cultured with endothelial cells + SP + Vestipitant,[7]; Leukemia B,53 ± 5%
same,Endothelial cells co-cultured with tumor cells + SP + Vestipitant,[7]; Leukemia T,57 ± 4%
same,Tumor cells co-cultured with endothelial cells + SP + Vestipitant,[7]; Leukemia T,56 ± 4%
same,Endothelial cells co-cultured with tumor cells + SP + Vestipitant,[7]; Malignant fibrous histiocytoma,53 ± 4%
same,Tumor cells co-cultured with endothelial cells + SP + Vestipitant,[7]; Malignant fibrous histiocytoma,46 ± 7%
same,Endothelial cells co-cultured with tumor cells + SP + Vestipitant,[7]; Melanoma,55 ± 5%
same,Tumor cells co-cultured with endothelial cells + SP + Vestipitant,[7]; Melanoma,44 ± 4%
same,Endothelial cells co-cultured with tumor cells + SP + Vestipitant,[7]; Myeloma,56 ± 7%
same,Tumor cells co-cultured with endothelial cells + SP + Vestipitant,[7]; Myeloma,66 ± 3%
same,Endothelial cells co-cultured with tumor cells + SP + Vestipitant,[7]; Neuroblastoma,46 ± 3%
same,Tumor cells co-cultured with endothelial cells + SP + Vestipitant,[7]; Neuroblastoma,56 ± 4%
same,Endothelial cells co-cultured with tumor cells + SP + Vestipitant,[7]; Non-Hodgkin's Lymphoma B,65 ± 4%
same,Tumor cells co-cultured with endothelial cells + SP + Vestipitant,[7]; Non-Hodgkin's Lymphoma B,43 ± 5%
same,Endothelial cells co-cultured with tumor cells + SP + Vestipitant,[7]; Non-Hodgkin's Lymphoma T,48 ± 6%
same,Tumor cells co-cultured with endothelial cells + SP + Vestipitant,[7]; Non-Hodgkin's Lymphoma T,81 ± 5%
same,Endothelial cells co-cultured with tumor cells + SP + Vestipitant,[7]; Renal carcinoma,54 ± 3%
same,Tumor cells co-cultured with endothelial cells + SP + Vestipitant,[7]; Renal carcinoma,54 ± 4%
same,Endothelial cells co-cultured with tumor cells + SP + Vestipitant,[7]; Sarcoma of Ewing,46 ± 4%
same,Tumor cells co-cultured with endothelial cells + SP + Vestipitant,[7]; Sarcoma of Ewing,47 ± 6%
